# Measured values as given in patent publication US8192962B2, “Processes for detecting toxic substances” (Daikin Industries, Ltd., priority 2001, dated 2012).
# Tested on: Metabolism protein genes
# Experiment: DNA chip mRNA expression in yeast, metabolism protein genes (Table 7)
# Assay type: cell-based, Saccharomyces cerevisiae S288C
# Description: Yeast (Saccharomyces cerevisiae S288C (α SUC2mal mel gap2 CUP1)) were incubated at 25° C. on YPD medium (yeast extract 1%, polypepton 2%, glucose 2%). One of toxic chemical substances was added to the cells at logarithmic growth phase, and the cells were further incubated for two hours. Cells were cultured without any chemical substance in the same condition, and were used as control. Concentrations of the chemical substances were defined to inhibit the growth of the yeast but not lead to death.
# After completion of the incubation, the culture was centrifuged to collect the cells. To the cells, sodium acetate buffer (50 mM sodium acetate, 10 mM EDTA, 1% SDS) was added, and the mixture was shaken at 65° C. for five minutes, followed by returning to room temperature, and obtaining the supernatant, of which the procedures were repeated two times. To the supernatant, ½ amount of a solution of phenol/chloroform was added, and the mixture was centrifuged to give a supernatant, which was added with an equal amount of chloroform, and the mixture was centrifuged to give a supernatant. To the supernatant, an equal amount of isopropanol containing 0.3 M sodium acetate was added, and the mixture was allowed to stand at room temperature for 30 minutes, after which the mixture was centrifuged to give a sediment of the whole RNAs. Seventy % ethanol was added to the sediment, and the mixture was again centrifuged to give a sediment, which was then dried and dissolved in water. mRNA was isolated from the whole RNAs as followings. In view of the fact that a poly A chain is attached to the 3′ terminus of mRNA, a polynucleotide having a poly T structure which was immobilized on the surface of latex beads was used to trap the mRNA, and then the mRNA was washed and eluted with spine column (Oligotex-dT30<Super>mRNA Purification Kit, Takara). Reverse transcription of the mRNA was conducted with a reverse transcriptase (Super Script II Reverse Transcriptase; catalogue No. 18064-014, GibcoBRL) using fluorescence-labeled nucleotides to give cDNAs that were introduced with Cy3-dUTP or Cy5-dUTP during the reverse transcription.
# The labeled cDNAs were dissolved in TE buffer (10mM Tris-HCl/1 mM EDTA, pH8.0), and the solution was dropped on the DNA chip containing the whole genes of yeast (DNA Chip Research Inc. Japan) so that the cDNAs were hybridized on the DNA chip at 65° C. for over 12 hours. The fluoresces intensity of the DNA chip was read with a scanner, and the ratio relative to the fluorescence intensity resulting from the absence of chemical substance was estimated as the following, which is shown in Tables 1 to 9: […]
smiles,measurement,setting,value
"COc1cc(CNC(=O)CCCCC=CC(C)C)ccc1O [(12), 8-methyl-N-vanillyl-6-nonenamide]",The level of expressed mRNA in the presence of chemical substance/The level of expressed mRNA in the absence of chemical substance,yeast gene YAL012W,1.1
same,The level of expressed mRNA in the presence of chemical substance/The level of expressed mRNA in the absence of chemical substance,yeast gene YAL038W,1.2
same,level of expressed mRNA in the presence/in the absence of chemical substance,yeast gene YBR003W,0.8
same,level of expressed mRNA in the presence/in the absence of chemical substance,yeast gene YBR011C,1.1
same,level of expressed mRNA in the presence/in the absence of chemical substance,yeast gene YBR020W,0.8
same,The level of expressed mRNA in the presence of chemical substance/The level of expressed mRNA in the absence of chemical substance,yeast gene YBR023C,0.8
same,The level of expressed mRNA in the presence of chemical substance/The level of expressed mRNA in the absence of chemical substance,yeast gene YBR029C,1.3
same,The level of expressed mRNA in the presence of chemical substance/The level of expressed mRNA in the absence of chemical substance,yeast gene YBR183W,1.2
same,The level of expressed mRNA in the presence of chemical substance/The level of expressed mRNA in the absence of chemical substance,yeast gene YBR222C,0.9
same,The level of expressed mRNA in the presence of chemical substance/The level of expressed mRNA in the absence of chemical substance,yeast gene YBR256C,1.7
same,The level of expressed mRNA in the presence of chemical substance/The level of expressed mRNA in the absence of chemical substance,yeast gene YCL009C,1.7
same,The level of expressed mRNA in the presence of chemical substance/The level of expressed mRNA in the absence of chemical substance,yeast gene YCL018W,1.6
same,The level of expressed mRNA in the presence of chemical substance/The level of expressed mRNA in the absence of chemical substance,yeast gene YCL064C,0.7
same,level of expressed mRNA in the presence/in the absence of chemical substance,yeast gene YCR010C,0.8
same,level of expressed mRNA in the presence/in the absence of chemical substance,yeast gene YCR034W,0.5
same,The level of expressed mRNA in the presence of chemical substance/The level of expressed mRNA in the absence of chemical substance,yeast gene YCR048W,0.9
same,The level of expressed mRNA in the presence of chemical substance/The level of expressed mRNA in the absence of chemical substance,yeast gene YCR098C,1.3
same,The level of expressed mRNA in the presence of chemical substance/The level of expressed mRNA in the absence of chemical substance,yeast gene YDL174C,2.8
same,The level of expressed mRNA in the presence of chemical substance/The level of expressed mRNA in the absence of chemical substance,yeast gene YDR019C,0.7
same,level of expressed mRNA in the presence/in the absence of chemical substance,yeast gene YDR050C,1.4
same,level of expressed mRNA in the presence/in the absence of chemical substance,yeast gene YDR073W,0.8
same,level of expressed mRNA in the presence/in the absence of chemical substance,yeast gene YDR123C,0.5
same,level of expressed mRNA in the presence/in the absence of chemical substance,yeast gene YDR178W,1.3
same,level of expressed mRNA in the presence/in the absence of chemical substance,yeast gene YDR277C,0.9
same,level of expressed mRNA in the presence/in the absence of chemical substance,yeast gene YDR284C,0.9
same,level of expressed mRNA in the presence/in the absence of chemical substance,yeast gene YDR345C,1.4
same,The level of expressed mRNA in the presence of chemical substance/The level of expressed mRNA in the absence of chemical substance,yeast gene YDR380W,0.4
same,level of expressed mRNA in the presence/in the absence of chemical substance,yeast gene YDR400W,0.4
same,level of expressed mRNA in the presence/in the absence of chemical substance,yeast gene YDR408C,0.6
same,level of expressed mRNA in the presence/in the absence of chemical substance,yeast gene YDR483W,0.8
same,The level of expressed mRNA in the presence of chemical substance/The level of expressed mRNA in the absence of chemical substance,yeast gene YDR497C,0.9
same,The level of expressed mRNA in the presence of chemical substance/The level of expressed mRNA in the absence of chemical substance,yeast gene YDR502C,1.3
same,The level of expressed mRNA in the presence of chemical substance/The level of expressed mRNA in the absence of chemical substance,yeast gene YDR516C,1.1
same,level of expressed mRNA in the presence/in the absence of chemical substance,yeast gene YEL063C,1.1
same,level of expressed mRNA in the presence/in the absence of chemical substance,yeast gene YER015W,0.9
same,The level of expressed mRNA in the presence of chemical substance/The level of expressed mRNA in the absence of chemical substance,yeast gene YER026C,1.7
same,The level of expressed mRNA in the presence of chemical substance/The level of expressed mRNA in the absence of chemical substance,yeast gene YER053C,1.7
same,The level of expressed mRNA in the presence of chemical substance/The level of expressed mRNA in the absence of chemical substance,yeast gene YER069W,0.8
same,level of expressed mRNA in the presence/in the absence of chemical substance,yeast gene YER081W,1.0
same,The level of expressed mRNA in the presence of chemical substance/The level of expressed mRNA in the absence of chemical substance,yeast gene YER096W,0.9
same,level of expressed mRNA in the presence/in the absence of chemical substance,yeast gene YER120W,1.3
same,The level of expressed mRNA in the presence of chemical substance/The level of expressed mRNA in the absence of chemical substance,yeast gene YER178W,1.3
same,level of expressed mRNA in the presence/in the absence of chemical substance,yeast gene YFL011W,0.9
same,The level of expressed mRNA in the presence of chemical substance/The level of expressed mRNA in the absence of chemical substance,yeast gene YFL014W,4.3
same,The level of expressed mRNA in the presence of chemical substance/The level of expressed mRNA in the absence of chemical substance,yeast gene YFL030W,1.2
same,The level of expressed mRNA in the presence of chemical substance/The level of expressed mRNA in the absence of chemical substance,yeast gene YFL031W,1.0
